Experimental data as given in US20040191297A1, “Carotenoid formulation” (priority 1997, published 2004).

Experiments:
[1] = Carotenoid content of Lycopene Suspension-supplemented diets after 7 months storage; format: physicochemical; settings: for Carotenoid content of diet: stored at −20 °C for 7 months
Protocol: When the Lycopene Suspension (Henkel Corporation, La Grange, Ill.) was extracted by organic extraction methods, the major carotenoid was lycopene, but a number of other carotenoids were known to be present in tomatoes, α- and β-Carotene, phytofluene and phytoene were also present (FIGS. 6 & 7). The quantitative profile of carotenoids in the Lycopene Suspension was carried out using an HPLC system as described above, equipped with a photodiode array detector. The six major components can be seen in Table 7.
(Table 10). Note that all the major carotenoids plus the lycopene metabolite present in the Lycopene Suspension are present in the diets in the same relative proportions. However, the net loss of lycopene over 7 months was 66%, 38%, 40%, 44% and 60%, in treatment groups 1-5, respectively; in contrast, β-carotene concentrations declined by only 10% of original values over the same time period.

[2] = Carotenoid content of livers of rats fed supplemented diets
Protocol: Breast, liver and prostate tissue contain lipids which interfere with the assay. Consequently, a saponification step was required prior to organic extraction. Tissue was homogenized in 20 ml methanol to which echinenone was added as internal standard. For breast tissue, which comprise of 85% adipocytes, 8.0 ml 50% NaOH and 4.0 ml 25% sodium ascorbate was added and the mixture was homogenized. For prostate and liver tissue, which contain less lipid, 4.0 ml and 50% NaOH. and 2.0 ml sodium ascorbate were added and the mixture was
homogenized. Saponification was carried out in 50 ml tubes saturated with N2 gas overnight in a temperature controlled shaker bath at 30° C. Following saponification, 10 ml hexane was add d to each tube and vortexed for 1 minute. The mixture was then centrifuged at 2000 rpm for 10 min at 4° C. and the hexane layer was decanted and saved. This hexane extraction procedure was repeated 5-7 times. The pooled hexane extract was then dried under N2 gas at 60° C., dissolved in injection solvent and analyzed by HPLC. Lung and colon tissue were processed in an identical manner with the exception that the saponification step was omitted.

[3] = female rats, Diet 1, 2.5 mM/kg diet
[4] = female rats, Diet 2, 1.0 mM/kg diet
[5] = female rats, Diet 3, 0.5 mM/kg diet
[6] = female rats, Diet 4, 0.25 mM/kg diet
[7] = female rats, Diet 5, 0.10 mM/kg diet
[8] = male rats, Diet 1, 2.5 mM/kg diet
[9] = male rats, Diet 2, 1.0 mM/kg diet
[10] = male rats, Diet 3, 0.5 mM/kg diet
[11] = male rats, Diet 5, 0.10 mM/kg diet

| Carotenoid content of diet ([1]; Diet 1, 2.5 mM/kg diet) | Carotenoid content of diet ([1]; Diet 2, 1.0 mM/kg diet) | Carotenoid content of diet ([1]; Diet 3, 0.5 mM/kg diet) | Carotenoid content of diet ([1]; Diet 4, 0.25 mM/kg diet) | Carotenoid content of diet ([1]; Diet 5, 0.10 mM/kg diet) | Carotenoid content of liver [2, 3] | Carotenoid content of liver [2, 4] | Carotenoid content of liver [2, 5] | Carotenoid content of liver [2, 6] | Carotenoid content of liver [2, 7] | Carotenoid content of liver [2, 8] | Carotenoid content of liver [2, 9] | Carotenoid content of liver [2, 10] | Carotenoid content of liver ([2]; male rats, Diet 4, 0.25 mM/kg diet) | Carotenoid content of liver [2, 11] | decline of concentration from original values ([1]; diets, 7 months storage) | Structure (SMILES) |
| --- | --- | --- | --- | --- | --- | --- | --- | --- | --- | --- | --- | --- | --- | --- | --- | --- |
| 2 μg/gm (ppm) | 1.4 μg/gm (ppm) | 0.76 μg/gm (ppm) | 0.46 μg/gm (ppm) | 0.14 μg/gm (ppm) | 9 μg/gm (ppm) | 5 μg/gm (ppm) | 7 μg/gm (ppm) | 4 μg/gm (ppm) | 6 μg/gm (ppm) | 4 μg/gm (ppm) | .39 μg/gm (ppm) | 4 μg/gm (ppm) | .28 μg/gm (ppm) | .34 μg/gm (ppm) |  | CC(C)=CCC/C(C)=C/C=C/C(C)=C/C=C/C(C)=C/C=C/C=C(C)/C=C/C=C(C)/C=C/C1C(C(C)(C)O)CCC1(C)O (stereo not drawn) [2,6 cyclolycopene-1,5-diol] |
| 1 μg/gm (ppm) | 9 μg/gm (ppm) | 4 μg/gm (ppm) | 2 μg/gm (ppm) | 0 μg/gm (ppm) |  |  |  |  |  |  |  |  |  |  |  | CC(C)=CCC/C(C)=C/CC/C(C)=C/C=C/C(C)=C/C=C/C=C(C)/C=C/C=C(\C)CC/C=C(\C)CCC=C(C)C [zeta-carotene] |
| 284 μg/gm (ppm) | 138 μg/gm (ppm) | 69 μg/gm (ppm) | 37 μg/gm (ppm) | 8 μg/gm (ppm) |  |  |  |  |  |  |  |  |  |  | 10% | CC1=C(/C=C/C(C)=C/C=C/C(C)=C/C=C/C=C(C)/C=C/C=C(C)/C=C/C2=C(C)CCCC2(C)C)C(C)(C)CCC1 [β-carotene] |

More lines, now with the values behind:

| Structure (SMILES) | Carotenoid content of diet ([1]; Diet 1, 2.5 mM/kg diet) | Carotenoid content of diet ([1]; Diet 2, 1.0 mM/kg diet) | Carotenoid content of diet ([1]; Diet 3, 0.5 mM/kg diet) | Carotenoid content of diet ([1]; Diet 4, 0.25 mM/kg diet) | Carotenoid content of diet ([1]; Diet 5, 0.10 mM/kg diet) | Carotenoid content of liver [2, 3] | Carotenoid content of liver [2, 4] | Carotenoid content of liver [2, 5] | Carotenoid content of liver [2, 6] | Carotenoid content of liver [2, 7] | Carotenoid content of liver [2, 8] | Carotenoid content of liver [2, 9] | Carotenoid content of liver [2, 10] | Carotenoid content of liver ([2]; male rats, Diet 4, 0.25 mM/kg diet) | Carotenoid content of liver [2, 11] | decline of concentration from original values ([1]; diets, 7 months storage) |
| --- | --- | --- | --- | --- | --- | --- | --- | --- | --- | --- | --- | --- | --- | --- | --- | --- |
| CC(C)=CCC/C(C)=C/CC/C(C)=C/CC/C(C)=C/C=C/C=C(\C)CC/C=C(\C)CC/C=C(\C)CCC=C(C)C [Phytoene] | 70 μg/gm (ppm) | 23 μg/gm (ppm) | 0.32 μg/gm (ppm) | 5 μg/gm (ppm) | 1 μg/gm (ppm) | 66 μg/gm (ppm) | 35 μg/gm (ppm) | 40 μg/gm (ppm) | 46 μg/gm (ppm) | 38 μg/gm (ppm) | 23 μg/gm (ppm) | 4 μg/gm (ppm) | 21 μg/gm (ppm) |  | 10 μg/gm (ppm) |  |
| CC(C)=CCC/C(C)=C/CC/C(C)=C/C=C/C(C)=C/C=C/C=C(\C)CC/C=C(\C)CC/C=C(\C)CCC=C(C)C [Phytofluene] | 58 μg/gm (ppm) | 28 μg/gm (ppm) | 14 μg/gm (ppm) | 8 μg/gm (ppm) | 2 μg/gm (ppm) | 106 μg/gm (ppm) | 48 μg/gm (ppm) | 50 μg/gm (ppm) | 46 μg/gm (ppm) | 33 μg/gm (ppm) | 30 μg/gm (ppm) | 5 μg/gm (ppm) | 34 μg/gm (ppm) |  | 10 μg/gm (ppm) |  |
